In the supplement of paper PMC10307832:

Assays:
Assay in all cases: relative viability (nuclei count vs DMSO), 5 days (fraction); higher = more cells survive
R406 + Palbociclib = compound: COc1cc(Nc2ncc(F)c(Nc3ccc4c(n3)NC(=O)C(C)(C)O4)n2)cc(OC)c1OC [R406] + CC(=O)c1c(C)c2cnc(Nc3ccc(N4CCNCC4)cn3)nc2n(C2CCCC2)c1=O [Palbociclib] (partner 0.5 µM)
Procedure, shortened: (§1)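 Cells from lung cancer lines were seeded into 1536-well plates and, one day later, dosed by pin tool. Treatments were either a single drug or a fixed dose of an anchor drug with five library-drug doses (not always all listed) in √10 steps. After 5 days, nuclei were stained in a one-step fixation (final 0.05% Triton X-100, 1% formaldehyde, 1 ug/ml Hoechst) and counted on 4× images, and relative viability is the treated-to-vehicle nuclei ratio, as the median of duplicate plates.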

R406 + Pemetrexed = compound: COc1cc(Nc2ncc(F)c(Nc3ccc4c(n3)NC(=O)C(C)(C)O4)n2)cc(OC)c1OC [R406] + Nc1nc2[nH]cc(CCc3ccc(C(=O)N[C@@H](CCC(=O)O)C(=O)O)cc3)c2c(=O)[nH]1 [Pemetrexed] (partner 0.2 µM)
Procedure, shortened: as §1

Daporinad + Alpelisib = compound: O=C(/C=C/c1cccnc1)NCCCCC1CCN(C(=O)c2ccccc2)CC1 [Daporinad] + Cc1nc(NC(=O)N2CCC[C@H]2C(N)=O)sc1-c1ccnc(C(C)(C)C(F)(F)F)c1 [Alpelisib] (partner 2 µM)
Procedure, shortened: as §1

Daporinad + Decitabine = compound: O=C(/C=C/c1cccnc1)NCCCCC1CCN(C(=O)c2ccccc2)CC1 [Daporinad] + Nc1ncn([C@H]2C[C@H](O)[C@@H](CO)O2)c(=O)n1 [Decitabine] (partner 2 µM)
Procedure, shortened: as §1

| Cell Line | relative viability (R406 + Palbociclib; first compound 0.08 µM) | relative viability (R406 + Palbociclib; first compound 0.253 µM) | relative viability (R406 + Palbociclib; first compound 0.8 µM) | relative viability (R406 + Palbociclib; first compound 2.53 µM) | relative viability (R406 + Palbociclib; first compound 8 µM) | relative viability (R406 + Pemetrexed; first compound 0.08 µM) | relative viability (R406 + Pemetrexed; first compound 0.253 µM) | relative viability (R406 + Pemetrexed; first compound 0.8 µM) | relative viability (R406 + Pemetrexed; first compound 2.53 µM) | relative viability (R406 + Pemetrexed; first compound 8 µM) | relative viability (Daporinad + Alpelisib; first compound 0.0005 µM) | relative viability (Daporinad + Alpelisib; first compound 0.001581 µM) | relative viability (Daporinad + Alpelisib; first compound 0.005 µM) | relative viability (Daporinad + Alpelisib; first compound 0.01581 µM) | relative viability (Daporinad + Decitabine; first compound 0.0005 µM) | relative viability (Daporinad + Decitabine; first compound 0.001581 µM) | relative viability (Daporinad + Decitabine; first compound 0.005 µM) | relative viability (Daporinad + Decitabine; first compound 0.01581 µM) |
| --- | --- | --- | --- | --- | --- | --- | --- | --- | --- | --- | --- | --- | --- | --- | --- | --- | --- | --- |
| PC-3 [JPC-3] | 0.518 | 0.591 | 0.582 | 0.549 | 0.45 | 1.08 | 1.25 | 1.25 | 0.882 | 0.455 | 1.03 | 1.03 | 1.15 | 1.04 | 0.84 | 0.781 | 0.91 | 0.907 |
| NCI-H661 | 0.398 | 0.411 | 0.382 | 0.42 | 0.322 | 0.943 | 0.92 | 0.86 | 0.767 | 0.685 | 0.635 | 0.506 | 0.649 | 0.401 | 0.615 | 0.625 | 0.416 | 0.362 |
| NCI-H1666 | 0.653 | 0.662 | 0.678 | 0.675 | 0.638 | 0.825 | 1.05 | 0.86 | 0.718 | 0.674 | 1.04 | 1.13 | 1.23 | 0.881 | 0.666 | 0.712 | 0.814 | 0.718 |
| NCI-H2085 | 0.468 | 0.459 | 0.45 | 0.455 | 0.36 | 0.89 | 0.902 | 0.867 | 0.64 | 0.589 | 0.952 | 1.01 | 1.14 | 1.07 | 0.486 |  | 0.59 | 0.573 |
| NCI-H1734 | 0.359 | 0.372 | 0.376 | 0.346 | 0.243 | 0.394 | 0.417 | 0.453 | 0.45 | 0.322 | 0.703 | 0.736 | 0.695 | 0.582 | 0.488 | 0.494 | 0.394 | 0.32 |
| NCI-H2126 | 0.347 | 0.357 | 0.313 | 0.349 | 0.276 | 0.749 | 0.664 | 0.722 | 0.599 | 0.61 | 0.734 | 0.758 | 0.777 | 0.813 | 0.618 | 0.524 | 0.638 | 0.584 |
| EMC-BAC-2 | 0.518 | 0.538 | 0.508 | 0.44 | 0.378 | 0.421 | 0.457 | 0.427 | 0.499 | 0.229 | 0.822 | 0.773 | 0.544 | 0.223 | 0.993 | 1.05 | 0.666 | 0.464 |
| NCI-H1993 | 0.651 | 0.667 | 0.611 | 0.683 | 0.607 | 0.618 | 0.5 | 0.678 | 0.578 | 0.464 | 0.696 | 0.67 | 0.685 | 0.688 | 0.576 | 0.629 | 0.602 | 0.639 |
| NCI-H650 | 0.34 | 0.412 | 0.322 | 0.289 | 0.253 | 0.912 | 1.13 | 0.953 | 0.779 | 0.591 | 1.08 | 1.24 | 1.32 | 1.38 | 0.307 | 0.387 | 0.351 | 0.323 |
| NCI-H1792 | 0.603 | 0.721 | 0.708 | 0.506 | 0.518 | 0.838 | 1.07 | 1.39 | 0.0474 | 0.194 | 0.715 | 0.761 | 0.339 | 0.752 | 0.545 | 0.65 | 0.683 | 0.406 |
| SW 1573 | 0.402 | 0.364 | 0.467 | 0.32 | 0.127 | 0.815 | 0.898 | 0.903 | 0.601 | 0.324 | 0.615 | 0.788 | 0.938 | 0.69 | 0.472 | 0.499 | 0.406 | 0.197 |
| NCI-H2009 | 0.232 | 0.212 | 0.265 | 0.192 | 0.114 | 0.969 | 1.09 | 1.05 | 0.979 | 0.946 | 1.17 | 1.15 | 1.21 | 1.07 | 0.356 | 0.395 | 0.381 | 0.372 |
| LOU-NH91 | 0.532 | 0.547 | 0.499 | 0.552 | 0.538 | 0.362 | 0.399 | 0.37 | 0.455 | 0.38 | 0.719 | 0.795 | 0.851 | 0.997 | 0.824 | 0.837 | 0.877 | 0.947 |
| NCI-H2405 | 0.52 | 0.561 | 0.517 | 0.364 | 0.2 | 1.14 | 1.22 | 1.08 | 0.495 | 0.224 | 0.918 | 0.939 | 0.928 | 0.466 | 0.796 | 0.807 | 0.751 | 0.379 |
| LCLC-97TM1 | 0.34 | 0.218 | 0.273 | 0.185 | 0.217 | 0.182 | 0.2 | 0.171 | 0.183 | 0.194 | 0.295 | 0.268 | 0.248 | 0.257 | 0.221 | 0.243 | 0.209 | 0.233 |
| NCI-H647 | 0.387 | 0.37 | 0.426 | 0.261 | 0.0695 | 0.172 | 0.178 | 0.17 | 0.0932 | 0.0585 | 1.2 | 1.07 | 1.19 | 1.05 | 0.37 | 0.425 | 0.448 | 0.366 |
| NCI-H838 | 0.227 | 0.236 | 0.247 | 0.179 | 0.107 | 0.257 | 0.268 | 0.244 | 0.226 | 0.136 | 0.973 | 1.03 | 1.06 | 0.512 | 0.44 | 0.518 | 0.358 | 0.303 |
| H3255 | 0.295 | 0.331 | 0.336 | 0.358 | 0.284 | 0.547 | 0.588 | 0.606 | 0.521 | 0.49 | 0.696 | 0.812 | 0.725 | 0.702 | 0.464 | 0.605 | 0.863 | 0.816 |
| NCI-H2170 | 0.379 | 0.393 | 0.452 | 0.264 | 0.419 | 0.194 | 0.262 | 0.238 | 0.24 | 0.221 | 0.811 | 0.825 | 0.795 | 0.839 | 0.491 | 0.446 | 0.444 | 0.439 |
| NCI-H1437 | 0.318 | 0.349 | 0.363 | 0.391 | 0.229 | 0.297 | 0.316 | 0.317 | 0.259 | 0.203 | 1 | 1.01 | 1.03 | 0.936 | 0.554 | 0.565 | 0.614 | 0.575 |
| NCI-H358 | 0.12 | 0.192 | 0.126 | 0.0867 | 0.0882 | 0.167 | 0.17 | 0.168 | 0.146 | 0.145 | 0.833 | 0.984 | 0.887 | 0.834 | 0.215 | 0.256 | 0.233 | 0.194 |
| LU99A | 0.343 | 0.392 | 0.422 | 0.273 | 0.26 | 0.188 | 0.183 | 0.224 | 0.187 | 0.172 | 0.492 | 0.602 | 0.584 | 0.574 | 0.898 | 0.908 | 0.943 | 0.645 |
| SK-MES-1 | 0.313 | 0.297 | 0.307 | 0.259 | 0.192 | 0.948 | 0.942 | 1.01 | 0.538 | 0.213 | 0.841 | 0.894 | 0.947 | 1.03 | 0.377 | 0.374 | 0.383 | 0.375 |
| HCC-827 | 0.508 | 0.538 | 0.517 | 0.422 | 0.373 | 0.259 | 0.262 | 0.264 | 0.229 | 0.193 | 1.04 | 1.03 | 1.06 | 0.969 | 0.322 | 0.356 | 0.351 | 0.336 |
| LK-2 | 0.592 | 0.679 | 0.854 | 0.574 | 0.542 | 0.192 | 0.326 | 0.38 | 0.191 | 0.126 | 0.995 | 1.24 | 0.719 | 0.549 | 0.338 | 0.323 | 0.228 | 0.13 |
| HCC-366 | 0.36 | 0.465 | 0.387 | 0.262 | 0.0616 | 0.161 | 0.17 | 0.172 | 0.164 | 0.132 | 0.44 | 0.503 | 0.542 | 0.616 | 0.413 |  | 0.368 | 0.321 |
| BEN | 0.439 | 0.502 | 0.495 | 0.561 | 0.422 | 0.773 | 0.879 | 0.805 | 0.835 | 0.438 | 0.924 | 0.979 | 1.08 | 1.27 | 0.799 | 0.783 | 0.803 | 0.835 |
| NCI-H23 | 0.496 | 0.539 | 0.629 | 0.454 | 0.155 | 0.565 | 0.806 | 0.782 | 0.17 | 0.248 | 0.69 | 0.776 | 0.782 | 0.416 | 0.319 | 0.306 | 0.272 | 0.23 |
| NCI-H1395 | 0.609 | 0.663 | 0.652 | 0.47 | 0.551 | 0.865 | 1.01 | 0.856 | 0.865 | 0.434 | 0.987 | 1.16 | 1.39 | 1.31 | 0.713 | 0.816 | 0.765 | 0.784 |
